{"source": "patent US20250281453A1", "about": "“COMBINATION THERAPIES COMPRISING QTX125” (QUIMATRYX, S.L., priority 2022, published 2025)", "origin": "cited, not measured here", "target": "T1, HDAC 6 (Homo sapiens, UniProt Q9UBN7)", "T1 sequence (Q9UBN7 1-1215)": "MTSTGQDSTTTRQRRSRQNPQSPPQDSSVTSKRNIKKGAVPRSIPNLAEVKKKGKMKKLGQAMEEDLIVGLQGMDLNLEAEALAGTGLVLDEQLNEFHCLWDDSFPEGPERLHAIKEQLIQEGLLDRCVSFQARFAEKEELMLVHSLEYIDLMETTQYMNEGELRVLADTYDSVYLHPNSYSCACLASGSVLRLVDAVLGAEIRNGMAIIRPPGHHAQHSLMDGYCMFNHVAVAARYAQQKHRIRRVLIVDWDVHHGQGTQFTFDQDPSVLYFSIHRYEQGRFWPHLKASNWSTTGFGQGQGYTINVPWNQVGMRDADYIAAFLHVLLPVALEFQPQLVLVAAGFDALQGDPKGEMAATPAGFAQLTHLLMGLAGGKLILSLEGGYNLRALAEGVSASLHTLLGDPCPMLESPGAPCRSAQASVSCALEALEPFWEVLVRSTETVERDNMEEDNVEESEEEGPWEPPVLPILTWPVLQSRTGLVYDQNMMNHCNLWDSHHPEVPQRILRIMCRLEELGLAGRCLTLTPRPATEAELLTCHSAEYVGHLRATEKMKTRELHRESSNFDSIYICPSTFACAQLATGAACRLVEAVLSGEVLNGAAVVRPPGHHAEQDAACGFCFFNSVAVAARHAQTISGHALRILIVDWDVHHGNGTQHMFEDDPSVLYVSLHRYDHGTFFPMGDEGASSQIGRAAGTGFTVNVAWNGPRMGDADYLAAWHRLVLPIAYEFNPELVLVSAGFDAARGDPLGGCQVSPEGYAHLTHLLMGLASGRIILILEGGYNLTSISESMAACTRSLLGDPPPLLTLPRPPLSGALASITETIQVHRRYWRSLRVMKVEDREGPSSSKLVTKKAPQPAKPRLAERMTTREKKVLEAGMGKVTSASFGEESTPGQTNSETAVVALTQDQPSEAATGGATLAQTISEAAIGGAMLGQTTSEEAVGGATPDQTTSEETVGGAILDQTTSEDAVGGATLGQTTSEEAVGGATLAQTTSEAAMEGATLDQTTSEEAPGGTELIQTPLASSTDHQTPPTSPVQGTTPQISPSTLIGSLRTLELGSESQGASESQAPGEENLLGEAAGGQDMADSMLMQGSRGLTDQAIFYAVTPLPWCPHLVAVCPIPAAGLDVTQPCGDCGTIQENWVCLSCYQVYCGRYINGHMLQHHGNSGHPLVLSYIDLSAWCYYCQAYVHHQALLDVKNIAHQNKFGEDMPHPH", "conditions": "cited from earlier work"}
{"smiles": "O=C(NO)c1ccc(CNC(=O)c2[nH]c(-c3ccc(O)cc3)cc2-c2ccoc2)cc1", "note": "[QTX125, 3-(3-Furyl)-N-{4-[(hydroxyamino)carbonyl]benzyl}-5-(4-hydroxyphenyl)-1 Hpyrrole-2-carboxamide]", "values": [{"measurement": "HDAC 6 inhibition", "value": "highly selective and highly potent"}]}
